From DBAASP come the findings set out here.

≈ marks a conversion by molar mass, not a printed value. Where “and” joins values, the source holds several entries; their conditions need not be identical. Equal entries are not always repeated.

Test in all cases: ≥ marks a high value that may be exact or a test limit, other limits are often not marked, values filed in µg/mL are converted to µM
In test [1] the test system is Escherichia coli ATCC 25922.
Test [2] has as its system Staphylococcus aureus ATCC 2592.
For test [3], the system named is Candida albicans ATCC 2002.
The subject of test [4] is Pseudomonas aeruginosa ATCC 9027.
The test system of test [5] is Escherichia coli ATCC 25726.
The subject of test [6] is Staphylococcus aureus ATCC 25923.
Test [7] has as its system Candida albicans ATCC 90028.
Test [8] concerns Staphylococcus aureus NCTC 8325.
Test [9] relates to Bacillus subtilis.
Test [10] has as its system Bacillus subtilis ATCC 6633.
Test [11] concerns Acinetobacter baumannii.

As to `CC[C@H](C)[C@H](NC(=O)CN)C(=O)NCC(=O)N[C@@H](CCCN=C(N)N)C(=O)N[C@@H](CCCCN)C(=O)N[C@@H](Cc1ccccc1)C(=O)N[C@@H](CC(C)C)C(=O)NCC(=O)NCC(=O)N[C@H](C(=O)N[C@@H](CCCCN)C(=O)N[C@H](C(=O)N[C@H](C(=O)N[C@@H](Cc1ccccc1)C(=O)N[C@@H](CCCN=C(N)N)C(=O)NCC(=O)NCC(=O)N[C@H](C(=O)N[C@@H](CCCCN)C(=O)N[C@@H](CC(=O)O)C(=O)N[C@@H](Cc1ccccc1)C(=O)N[C@@H](C)C(=O)N[C@@H](CO)C(=O)N[C@@H](CCCCN)C(=O)N[C@@H](Cc1cnc[nH]1)C(=O)N[C@@H](CC(C)C)C(=O)N[C@@H](Cc1ccc(O)cc1)C(N)=O)C(C)C)[C@@H](C)O)[C@@H](C)O)C(C)C` [GIGRKFLGGVKTTFRGGVKDFASKHLY], the MIC in test [1] is 150 µM and 100 µM; in [2] it was at least 75 µM.
Take `CC[C@H](C)[C@H](NC(=O)CNC(=O)[C@@H]1CCCN1C(=O)CNC(=O)[C@H](CC(C)C)NC(=O)[C@H](CC(N)=O)NC(=O)[C@H](C)NC(=O)[C@H](Cc1ccccc1)NC(=O)[C@H](CC(N)=O)NC(=O)[C@H](C)NC(=O)[C@H](CCCN=C(N)N)NC(=O)[C@H](Cc1ccccc1)NC(=O)[C@H](C)NC(=O)[C@@H](NC(=O)[C@H](CCCN=C(N)N)NC(=O)[C@H](Cc1c[nH]c2ccccc12)NC(=O)[C@H](Cc1ccc(O)cc1)NC(=O)[C@H](CC(=O)O)NC(=O)[C@H](C)NC(=O)[C@H](CC(C)C)NC(=O)CN)[C@@H](C)O)C(=O)N[C@@H](CCCN=C(N)N)C(=O)N[C@H]1CSSC[C@@H](C(=O)O)NC(=O)[C@H](CCCN=C(N)N)NC(=O)[C@H](C)NC(=O)[C@H](CO)NC(=O)[C@H](CCCCN)NC1=O` [GLADYWRTAFRANFANLGPGIRCKSARC]: the MIC in test [3] was at least 32 µM; in test [1], 2 µM (≈ 6.23 µg/mL); in [4], 6 µM (≈ 18.7 µg/mL); in [2], 1 µM (≈ 3.11 µg/mL).
In the case of `CC[C@H](C)[C@H](N)C(=O)N[C@H](C(=O)N[C@H](C(=O)N1CCC[C@H]1C(=O)N1CCC[C@H]1C(=O)N[C@H](C(=O)N[C@H](C(=O)N[C@@H](CCCCN)C(=O)N[C@@H](CC(=O)O)C(=O)N[C@H](C(=O)N[C@@H](CC(C)C)C(=O)N[C@@H](CCCCN)C(=O)N[C@@H](CCCCN)C(=O)N[C@@H](Cc1ccccc1)C(=O)N[C@@H](Cc1ccccc1)C(=O)N[C@@H](CCCCN)C(=O)NCC(=O)NCC(=O)N[C@H](C(=O)N[C@@H](C)C(=O)NCC(=O)N[C@H](C(=O)N[C@@H](CCSC)C(=O)NCC(=O)N[C@@H](CCC(N)=O)C(=O)O)C(C)C)[C@@H](C)CC)[C@@H](C)O)C(C)C)[C@@H](C)CC)[C@@H](C)CC)[C@@H](C)O` [ITIPPIVKDTLKKFFKGGIAGVMGQ], the MIC in test [5] was at least 40 µM; in test [6], 40 µM (≈ 106 µg/mL).
For `CC[C@H](C)[C@H](N)C(=O)N[C@@H](CC(C)C)C(=O)N1CCC[C@H]1C(=O)N[C@H](C(=O)N[C@@H](CC(C)C)C(=O)NCC(=O)N[C@@H](CC(N)=O)C(=O)N[C@@H](CC(C)C)C(=O)N[C@@H](CC(C)C)C(=O)N[C@@H](CC(N)=O)C(=O)N[C@@H](CO)C(=O)N[C@@H](CC(C)C)C(=O)N[C@@H](CC(C)C)C(N)=O)[C@@H](C)CC` [ILPILGNLLNSLL], the figures for the MIC in test [7], in [1] and in [8] were at least 100 µM, over 100 µM and at least 100 µM, respectively.
Regarding `CC[C@H](C)[C@H](NC(=O)[C@H](CCC(N)=O)NC(=O)[C@H](CCCCN)NC(=O)CNC(=O)[C@H](CC(C)C)NC(=O)[C@H](CCC(N)=O)NC(=O)CNC(=O)[C@H](CC(C)C)NC(=O)[C@H](CCCCN)NC(=O)[C@H](C)NC(=O)[C@H](CCC(=O)O)NC(=O)[C@H](CCCCN)NC(=O)[C@@H](NC(=O)CNC(=O)[C@@H](NC(=O)[C@@H](NC(=O)[C@@H](NC(=O)[C@@H](N)CO)[C@@H](C)CC)[C@@H](C)CC)[C@@H](C)O)[C@@H](C)O)C(=O)N[C@@H](C)C(=O)N[C@H]1CSSC[C@@H](C(=O)O)NC(=O)[C@H]([C@@H](C)O)NC(=O)[C@H](CC(N)=O)NC(=O)CNC(=O)[C@H](CC(C)C)NC(=O)[C@H](CCCN=C(N)N)NC1=O` [SIITGTKEAKLGQLGKQIACRLGNTC], the MIC in test [9] is at least 44.4 µM; in test [3], 11.1 µM (≈ 30 µg/mL); in test [1], 44.4 µM (≈ 120 µg/mL); in test [2], 5.55 µM (≈ 15 µg/mL).
As to `CC[C@H](C)[C@H](NC(=O)[C@@H](NC(=O)[C@@H](N)Cc1ccccc1)[C@@H](C)CC)C(=O)N[C@H](C(=O)NCC(=O)N[C@@H](CC(C)C)C(=O)N[C@H](C(=O)N[C@@H](CCCN=C(N)N)C(=O)NCC(=O)N[C@@H](CC(C)C)C(=O)N[C@H](C(=O)N[C@@H](CCCCN)C(=O)N[C@@H](CC(C)C)C(=O)N[C@@H](Cc1ccccc1)C(N)=O)[C@@H](C)O)C(C)C)[C@@H](C)O` [FIITGLVRGLTKLF], the MIC in [10] amounted to 15.8 µM (≈ 25 µg/mL); in [2] it was 7.92 µM (≈ 12.5 µg/mL).
As for `CC[C@H](C)[C@H](NC(=O)[C@H](CCC(N)=O)NC(=O)[C@H](CCCCN)NC(=O)[C@H](Cc1c[nH]c2ccccc12)NC(=O)[C@H](CC(C)C)NC(=O)[C@H](CCC(N)=O)NC(=O)[C@@H]1CCCN1C(=O)[C@H](CC(C)C)NC(=O)[C@H](CCCCN)NC(=O)[C@H](C)NC(=O)[C@H](CCC(=O)O)NC(=O)[C@H](CCCCN)NC(=O)[C@@H](NC(=O)[C@H](CCSC)NC(=O)[C@@H](NC(=O)[C@@H](NC(=O)[C@@H](NC(=O)[C@@H](N)CO)[C@@H](C)CC)[C@@H](C)CC)[C@@H](C)O)[C@@H](C)O)C(=O)N[C@@H](C)C(=O)N[C@H]1CSSC[C@@H](C(=O)O)NC(=O)[C@H]([C@@H](C)O)NC(=O)[C@H](CC(N)=O)NC(=O)CNC(=O)[C@H](CC(C)C)NC(=O)[C@H](CCCN=C(N)N)NC1=O` [SIITMTKEAKLPQLWKQIACRLGNTC], the MIC in test [9] was determined as 20.4 µM (≈ 60 µg/mL); in test [3], 5.09 µM (≈ 15 µg/mL); in [1], 10.2 µM (≈ 30 µg/mL); in [2] it was 5.09 µM (≈ 15 µg/mL).
In the case of `CC[C@H](C)[C@H](NC(=O)CN)C(=O)N[C@@H](Cc1c[nH]c2ccccc12)C(=O)N[C@@H](CCCCN)C(=O)N[C@H](C(=O)N[C@H](C(=O)N[C@@H](CCCCN)C(=O)N[C@@H](CO)C(=O)N[C@@H](CCSC)C(=O)NCC(=O)N[C@@H](CCCCN)C(=O)N[C@H](C(=O)N[C@@H](Cc1ccccc1)C(=O)N[C@@H](C)C(=O)NCC(=O)N[C@@H](C)C(=O)N[C@H](C(=O)N[C@@H](CC(C)C)C(=O)N[C@@H](CCC(N)=O)C(=O)N[C@@H](CC(N)=O)C(=O)N[C@@H](CC(C)C)C(N)=O)[C@@H](C)CC)C(C)C)[C@@H](C)CC)[C@@H](C)O` [GIWKTIKSMGKVFAGAILQNL], the MIC is 12.5 µM (≈ 28.4 µg/mL) in test [11], 12.5 µM (≈ 28.4 µg/mL) in [7], 12.5 µM (≈ 28.4 µg/mL) in test [5] and 6.25 µM (≈ 14.2 µg/mL) in test [6].
Regarding `CSCC[C@H](NC(=O)[C@H](CCSC)NC(=O)[C@H](CCCCN)NC(=O)CNC(=O)[C@@H](NC(=O)[C@@H](NC(=O)[C@H](CCCCN)NC(=O)[C@H](CC(C)C)NC(=O)CNC(=O)[C@H](Cc1ccccc1)NC(=O)[C@H](CCCCN)NC(=O)[C@H](Cc1ccccc1)NC(=O)[C@H](C)NC(=O)[C@H](CCCCN)NC(=O)CNC(=O)[C@H](CC(C)C)NC(=O)[C@H](CC(C)C)NC(=O)[C@H](CO)NC(=O)CNC(=O)[C@H](CC(C)C)NC(=O)CN)[C@@H](C)O)C(C)C)C(=O)N[C@@H](C)C(=O)NCC(=O)N[C@@H](C)C(=O)N1CCC[C@H]1C(=O)N[C@@H](CCCN=C(N)N)C(=O)N[C@@H](CCC(=O)O)C(=O)N[C@@H](CCC(N)=O)C(=O)O` [GLGSLLGKAFKFGLKTVGKMMAGAPREQ], the MIC was 25 µM (≈ 72.3 µg/mL) in [7], 12.5 µM (≈ 36.2 µg/mL) in test [5] and 6 µM (≈ 17.4 µg/mL) in test [6].
On to `CC[C@H](C)[C@H](NC(=O)[C@H](C)NC(=O)[C@H](CC(C)C)NC(=O)[C@H](CC(N)=O)NC(=O)[C@H](CCCCN)NC(=O)[C@H](CC(C)C)NC(=O)[C@H](CO)NC(=O)[C@H](CC(=O)O)NC(=O)[C@H](CC(C)C)NC(=O)[C@H](CC(C)C)NC(=O)CN)C(=O)N[C@@H](CC(N)=O)C(=O)N[C@@H](C)C(=O)N[C@@H](C)C(=O)N[C@@H](CCCCN)C(=O)NCC(=O)N[C@@H](C)C(=O)NCC(=O)N[C@@H](CCC(N)=O)C(=O)N[C@@H](CO)C(=O)N[C@H](C(=O)N[C@@H](CC(C)C)C(=O)N[C@@H](CC(N)=O)C(=O)N[C@H](C(=O)N[C@@H](CC(C)C)C(=O)N[C@@H](CO)C(=O)N[C@H]1CSSC[C@@H](C(=O)O)NC(=O)[C@H]([C@@H](C)O)NC(=O)[C@H](CCCCN)NC(=O)[C@H](CO)NC(=O)[C@H](CC(C)C)NC(=O)[C@H](CCCCN)NC1=O)[C@@H](C)O)C(C)C` [GLLDSLKNLAINAAKGAGQSVLNTLSCKLSKTC], for which the results for the MIC in [5] and in [6] were at least 37.5 µM and 18.8 µM (≈ 62.5 µg/mL), respectively.
In the case of `CC[C@H](C)[C@H](NC(=O)[C@H](C)NC(=O)[C@@H]1CCCN1C(=O)[C@H](CC(C)C)NC(=O)[C@@H](N)Cc1ccccc1)C(=O)N[C@@H](C)C(=O)NCC(=O)N[C@@H](CCSC)C(=O)N[C@@H](C)C(=O)N[C@@H](C)C(=O)N[C@@H](CCCCN)C(=O)N[C@@H](Cc1ccccc1)C(=O)N[C@@H](CC(C)C)C(=O)N1CCC[C@H]1C(=O)N[C@@H](CCCCN)C(=O)N[C@H](C(=O)N[C@@H](Cc1ccccc1)C(=O)N[C@H]1CSSC[C@@H](C(=O)O)NC(=O)[C@H](CCCCN)NC(=O)[C@H](CCCCN)NC(=O)[C@H](CO)NC(=O)[C@H]([C@@H](C)CC)NC(=O)[C@H](C)NC1=O)[C@@H](C)CC` [FLPAIAGMAAKFLPKIFCAISKKC], the figures for the MIC in test [7], in [1] and in [8] were 10 µM (≈ 25.7 µg/mL), 3 µM (≈ 7.7 µg/mL) and 1 µM (≈ 2.57 µg/mL), respectively.
